Values quoted from earlier work in patent publication US4356265A, “Method for the production of antibiotic C-15003 P-3” (priority 1979, dated 1982).
≈ marks a conversion by molar mass, not a printed value. Read-outs that look alike come from different tables or passages of the source.

Legend:
Escherichia coli = conditions: 0.02 ml of 300-μg/ml solution per disc, Trypticase Soy Agar
Proteus vulgaris = conditions: 0.02 ml of 300-μg/ml solution per disc, Trypticase Soy Agar
Proteus mirabilis = conditions: 0.02 ml of 300-μg/ml solution per disc, Trypticase Soy Agar
Pseudomonas aeruginosa = conditions: 0.02 ml of 300-μg/ml solution per disc, Trypticase Soy Agar
Staphylococcus aureus = conditions: 0.02 ml of 300-μg/ml solution per disc, Trypticase Soy Agar
Bacillus subtilis = conditions: 0.02 ml of 300-μg/ml solution per disc, Trypticase Soy Agar
Bacillus cereus = conditions: 0.02 ml of 300-μg/ml solution per disc, Trypticase Soy Agar
Klebsiella pneumoniae = conditions: 0.02 ml of 300-μg/ml solution per disc, Trypticase Soy Agar
Serratia, marcescens = conditions: 0.02 ml of 300-μg/ml solution per disc, Trypticase Soy Agar
Mycobacterium avium = conditions: 0.02 ml of 300-μg/ml solution per disc, Trypticase Soy Agar
Talaromyces avellaneus = conditions: agar plate, pH 7.0
Tetrahymena pyriformis W = conditions: pH 7.0, 28° C., 44 to 48 hours
P388 leukemia cells = conditions: 0.00625 mg/kg/day, intraperitoneally, 9 consecutive days; 1×10^6 cells/animal i.p.
mice = conditions: intraperitoneal injection
Alternaria kikuchiana = conditions: IFO 7515, PSA, 48 h; 0.02 ml of 1000 μg/ml
Fusicladium levieri = conditions: IFO 6477, PSA, 90 h; 0.02 ml of 1000 μg/ml
[1] = tested on: Helminthosporium sigmoideum var. irregulare; conditions: IFO 5273, PSA, 48 h; 0.02 ml of 1000 μg/ml
Pyricularia oryzae = conditions: PSA, 48 h; 0.02 ml of 1000 μg/ml
Elsinoe fawcetti = conditions: IFO 8417, PSA, 90 h; 0.02 ml of 1000 μg/ml
[2] = tested on: Fusarium oxysporum f. cucumerinum; conditions: PSA, 48 h; 0.02 ml of 1000 μg/ml
Guignardia laricina = conditions: IFO 7888, PSA, 48 h; 0.02 ml of 1000 μg/ml
Cochlioborus miyabeanus = conditions: IFO 5277, PSA, 48 h; 0.02 ml of 1000 μg/ml
Diaporthe citri = conditions: IFO 9170, PSA, 48 h; 0.02 ml of 1000 μg/ml
Gibberella zeae = conditions: IFO 8850, PSA, 48 h; 0.02 ml of 1000 μg/ml
Sclerotinia sclerotiorum = conditions: IFO 9395, PSA, 90 h; 0.02 ml of 1000 μg/ml
Venturia pirina = conditions: IFO 6189, PAA, 48 h; 0.02 ml of 1000 μg/ml
Pellicularia sasakii = conditions: IFO 9253, PSA, 48 h; 0.02 ml of 1000 μg/ml
Pythium aphanidermatam = conditions: IFO 7030, PSA, 48 h; 0.02 ml of 1000 μg/ml
Botrytis cinerea = conditions: PSA, 48 h; 0.02 ml of 1000 μg/ml
Aspergillus niger = conditions: IFO 4066, PSA, 48 h; 0.02 ml of 1000 μg/ml
Penicillium chrysogenum = conditions: IFO 4626, PSA, 48 h; 0.02 ml of 1000 μg/ml
Rhizopus nigricans = conditions: IFO 6188, PSA, 48 h; 0.02 ml of 1000 μg/ml
Saccharomyces cerevisiae = conditions: IFO 0209, PSA, 48 h; 0.02 ml of 1000 μg/ml
Rhodotorula rubra = conditions: IFO 0907, PSA, 48 h; 0.02 ml of 1000 μg/ml
Trichophyton rubrum = conditions: IFO 5467, GB, 48 h; 0.02 ml of 1000 μg/ml
[3] = tested on: Trichophyton mentagrophytes; conditions: IFO 7522, GB, 48 h; 0.02 ml of 1000 μg/ml
Candida albicans = conditions: IFO 0583, GB, 48 h; 0.02 ml of 1000 μg/ml
Candida utilis = conditions: IFO 0619, GB, 48 h; 0.02 ml of 1000 μg/ml
Cryptococcus neoformans = conditions: IFO 0410, GB, 48 h; 0.02 ml of 1000 μg/ml

In the case of `COc1cc2cc(c1Cl)N(C)C(=O)CC(OC(=O)C(C)C)C1(C)OC1C(C)C1CC(O)(NC(=O)O1)C(OC)C=CC=C(C)C2` (stereo not shown) [Antibiotic C-15003 P-3], the antibacterial activity (Escherichia coli) is given as “no activity”, the antibacterial activity (Proteus vulgaris) is given as “no activity” and the antibacterial activity (Proteus mirabilis) is given as “no activity”. The antibacterial activity (Pseudomonas aeruginosa) was “no activity”, the antibacterial activity (Staphylococcus aureus) was “no activity” and the antibacterial activity (Bacillus subtilis) was “no activity”. The antibacterial activity (Bacillus cereus) was “no activity”, the antibacterial activity (Klebsiella pneumoniae) was “no activity” and the antibacterial activity (Serratia, marcescens) was “no activity”. For the same molecule, the antibacterial activity (Mycobacterium avium) was “no activity”, the minimal inhibitory concentration (Talaromyces avellaneus) was 3 µg/mL (≈ 4.72 µM) and the “growth inhibition (concentration at which it occurs)” value (Tetrahymena pyriformis W) was 1 µg/mL. The life-span-extending ratio (P388 leukemia cells) was 200%, the LD0 (mice) was 0.313 mg/kg and the LD100 (mice) was 0.625 mg/kg. For the same molecule, the Solubility (in benzene, ether) was “Sparingly soluble”, the Solubility (in chloroform, ethyl acetate, acetone, ethanol, methanol, pyridine, tetrahydrofuran, dimethylsulfoxide) was “Soluble” and the Solubility (in petroleum ether, n-hexane, water) was “Insoluble”. The Inhibition diameter (Alternaria kikuchiana) was 38 mm, the Inhibition diameter (Fusicladium levieri) was 68 mm and the Inhibition diameter [1] was 55 mm. For the same molecule, the Inhibition diameter (Pyricularia oryzae) was 53 mm, the Inhibition diameter (Elsinoe fawcetti) was 55 mm and the Inhibition diameter [2] was 20 mm. The Inhibition diameter (Guignardia laricina) was 12 mm, the Inhibition diameter (Cochlioborus miyabeanus) was 60 mm and the Inhibition diameter (Diaporthe citri) was 55 mm. For the same molecule, the Inhibition diameter (Gibberella zeae) was 37 mm, the Inhibition diameter (Sclerotinia sclerotiorum) was 65 mm and the Inhibition diameter (Venturia pirina) was 50 mm. For the same molecule, the Inhibition diameter (Pellicularia sasakii) was 50 mm, the Inhibition diameter (Pythium aphanidermatam) was 58 mm and the Inhibition diameter (Botrytis cinerea) was 48 mm. The Inhibition diameter (Aspergillus niger) was 0 mm, the Inhibition diameter (Penicillium chrysogenum) was 35 mm and the Inhibition diameter (Rhizopus nigricans) was 25 mm. The Inhibition diameter (Saccharomyces cerevisiae) was 0 mm, the Inhibition diameter (Rhodotorula rubra) was 28 mm and the Inhibition diameter (Trichophyton rubrum) was 38 mm. The Inhibition diameter [3] was 38 mm, the Inhibition diameter (Candida albicans) was 0 mm and the Inhibition diameter (Candida utilis) was 0 mm. The Inhibition diameter (Cryptococcus neoformans) was 43 mm.
